Laboratory results: patent US11891387B2, “Monoacylglycerol lipase modulators” (Janssen Pharmaceutica NV, priority 2020, dated 2024)

Biological target: human MGL from HeLa cells (Homo sapiens (Human), UniProt Q99685)
Assay: MGL in vitro activity assay: cleavage of [glycerol-1,3-3H]-oleyl glycerol, activated carbon filtration
Type: biochemical
Conditions: 300 nM [Glycerol-1,3-3H]-oleyl glycerol, endogenously expressed MGL from HeLa cells, one hour incubation
Description: The assay used to measure the in vitro activity of MGL is adapted from the assay used for another serine hydrolase (FAAH) described in Wilson et al., 2003 (A high-throughput-compatible assay for determining the activity of fatty acid amide hydrolase. Wilson S J, Lovenberg T W, Barbier A J. Anal Biochem. 2003 Jul. 15; 318(2):270-5.). The assay consists of combining endogenously expressed MGL from HeLa cells with test compounds, adding [glycerol-1,3-^3H]-oleyl glycerol, incubating for one hour, and then measuring the amount of cleaved [1,3-^3H]-glycerol that passes through an activated carbon filter. The amount of cleaved, tritiated glycerol passing through the carbon filter is proportional to the activity of the MGL enzyme in a particular well/test condition.
Standard conditions for this assay combine 300 nM [Glycerol-1,3-^3H]-oleyl glycerol with human MGL from HeLa cells and test compounds for one hour, after which the reaction is filtered through activated carbon and tritium is measured in the flow through. The test compound concentration in screening mode is 10 μM, while the highest compound concentration in IC50 assays is determined empirically. MGL is the predominant hydrolase in HeLa cells/cell homogenates.

human MGL from HeLa cells, sequence (Q99685 whole entry): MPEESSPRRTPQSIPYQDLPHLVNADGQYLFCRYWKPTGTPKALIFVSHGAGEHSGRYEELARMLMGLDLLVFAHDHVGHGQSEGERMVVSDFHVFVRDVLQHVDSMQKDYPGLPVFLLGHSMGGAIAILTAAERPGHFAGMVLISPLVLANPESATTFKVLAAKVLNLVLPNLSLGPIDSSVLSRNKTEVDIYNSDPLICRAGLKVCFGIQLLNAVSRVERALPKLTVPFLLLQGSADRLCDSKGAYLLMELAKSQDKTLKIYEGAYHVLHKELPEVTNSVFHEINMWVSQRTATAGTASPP

`C[C@H]1c2nn(C)c(-c3cc(C(F)(F)F)n(C)n3)c2CCN1C(=O)c1cnn2cccc(F)c12` [Example 19, (S)-(2,7-Dimethyl-3-(1-methyl-5-(trifluoromethyl)-1H-pyrazol-3-yl)-2,4,5,7-tetrahydro-6H-pyrazolo[3,4-c]pyridin-6-yl)(4-fluoropyrazolo[1,5-a]pyridin-3-yl)methanone] was tested. Which IC50 did it give?
The IC50 was 19 nM.

How did the IC50 turn out when `COc1cc(C(=O)N2CCc3c(nn(C)c3-c3cc(C(F)(F)F)n(C)n3)[C@@H]2C)c2ccccc2n1` [Example 20, (S)-(2,7-Dimethyl-3-(1-methyl-5-(trifluoromethyl)-1H-pyrazol-3-yl)-2,4,5,7-tetrahydro-6H-pyrazolo[3,4-c]pyridin-6-yl)(2-methoxyquinolin-4-yl)methanone] was run?
The IC50 was 8.2 nM.

Which IC50 does the source give for `C[C@H]1c2nn(C)c(-c3cc(C(F)(F)F)nn3C)c2CCN1C(=O)c1ccc(F)c2c1cnn2C` [Example 21, (S)-(2,7-Dimethyl-3-(1-methyl-3-(trifluoromethyl)-1H-pyrazol-5-yl)-2,4,5,7-tetrahydro-6H-pyrazolo[3,4-c]pyridin-6-yl)(7-fluoro-1-methyl-1H-indazol-4-yl)methanone] here?
The IC50 was 5.6 nM.

For `C[C@H]1c2nn(C)c(-c3cc(C(F)(F)F)nn3C)c2CCN1C(=O)c1nn(C)c2ccc(F)cc12` [Example 22, (S)-(2,7-Dimethyl-3-(1-methyl-3-(trifluoromethyl)-1H-pyrazol-5-yl)-2,4,5,7-tetrahydro-6H-pyrazolo[3,4-c]pyridin-6-yl)(5-fluoro-1-methyl-1H-indazol-3-yl)methanone], which IC50 is on record?
Its IC50 is 30 nM.

Which IC50 does the source give for `C[C@H]1c2nn(C)c(-c3cc(C(F)(F)F)nn3C)c2CCN1C(=O)c1cccc2nn(C)cc12` [Example 23, (S)-(2,7-Dimethyl-3-(1-methyl-3-(trifluoromethyl)-1H-pyrazol-5-yl)-2,4,5,7-tetrahydro-6H-pyrazolo[3,4-c]pyridin-6-yl)(2-methyl-2H-indazol-4-yl)methanone] here?
Its IC50 is 84 nM.

Which IC50 does the source give for `Cc1nc2cc(F)ccc2cc1C(=O)N1CCc2c(nn(C)c2-c2cc(C(F)(F)F)nn2C)[C@@H]1C` [Example 24, (S)-(2,7-Dimethyl-3-(1-methyl-3-(trifluoromethyl)-1H-pyrazol-5-yl)-2,4,5,7-tetrahydro-6H-pyrazolo[3,4-c]pyridin-6-yl)(7-fluoro-2-methylquinolin-3-yl)methanone] here?
Its IC50 is 1760 nM.

For `Cc1ccc2nc(C)cc(C(=O)N3CCc4c(nn(C)c4-c4cc(C(F)(F)F)nn4C)[C@@H]3C)c2c1` [Example 25, (S)-(2,7-Dimethyl-3-(1-methyl-3-(trifluoromethyl)-1H-pyrazol-5-yl)-2,4,5,7-tetrahydro-6H-pyrazolo[3,4-c]pyridin-6-yl)(2,6-dimethylquinolin-4-yl)methanone], which IC50 is on record?
Its IC50 is 90 nM.

How did the IC50 turn out when `COc1ccc2nc(C)cc(C(=O)N3CCc4c(nn(C)c4-c4cc(C(F)(F)F)nn4C)[C@@H]3C)c2c1` [Example 26, (S)-(2,7-Dimethyl-3-(1-methyl-3-(trifluoromethyl)-1H-pyrazol-5-yl)-2,4,5,7-tetrahydro-6H-pyrazolo[3,4-c]pyridin-6-yl)(6-methoxy-2-methylquinolin-4-yl)methanone] was run?
The IC50 was 880 nM.

`C[C@H]1c2nn(C)c(-c3cnn(C)c3C(F)(F)F)c2CCN1C(=O)c1nn(C)c2cc(F)cc(F)c12` [Example 27, (S)-(4,6-Difluoro-1-methyl-1H-indazol-3-yl)(2,7-dimethyl-3-(1-methyl-5-(trifluoromethyl)-1H-pyrazol-4-yl)-2,4,5,7-tetrahydro-6H-pyrazolo[3,4-c]pyridin-6-yl)methanone] was tested. Which IC50 did it give?
The IC50 was 1170 nM.

With `C[C@H]1c2nn(C)c(-c3cnn(C)c3C(F)(F)F)c2CCN1C(=O)c1n[nH]c2cc(F)cc(F)c12` [Example 28, (S)-(4,6-Difluoro-1H-indazol-3-yl)(2,7-dimethyl-3-(1-methyl-5-(trifluoromethyl)-1H-pyrazol-4-yl)-2,4,5,7-tetrahydro-6H-pyrazolo[3,4-c]pyridin-6-yl)methanone] as the compound, how does the IC50 read?
The IC50 was 2120 nM.

Which IC50 does the source give for `C[C@H]1c2nn(C)c(-c3cc(C(F)(F)F)nn3C)c2CCN1C(=O)c1ccccc1C(F)(F)F` [Example 29, (S)-(2,7-Dimethyl-3-(1-methyl-3-(trifluoromethyl)-1H-pyrazol-5-yl)-2,4,5,7-tetrahydro-6H-pyrazolo[3,4-c]pyridin-6-yl)(2-(trifluoromethyl)phenyl)methanone] here?
The IC50 was 150 nM.

How did the IC50 turn out when `Cc1ccc(C(=O)N2CCc3c(nn(C)c3-c3cnn(C)c3C(F)(F)F)[C@@H]2C)c(F)c1` [Example 30, (S)-(2,7-Dimethyl-3-(1-methyl-5-(trifluoromethyl)-1H-pyrazol-4-yl)-2,4,5,7-tetrahydro-6H-pyrazolo[3,4-c]pyridin-6-yl)(2-fluoro-4-methylphenyl)methanone] was run?
Its IC50 is 3070 nM.

`C[C@H]1c2nn(C)c(-c3cnn(C)c3C(F)(F)F)c2CCN1C(=O)c1cccc2cnn(C)c12` [Example 31, (S)-(2,7-Dimethyl-3-(1-methyl-5-(trifluoromethyl)-1H-pyrazol-4-yl)-2,4,5,7-tetrahydro-6H-pyrazolo[3,4-c]pyridin-6-yl)(1-methyl-1H-indazol-7-yl)methanone] was tested. Which IC50 did it give?
Its IC50 is 10000 nM.

For `C[C@H]1c2nn(C)c(-c3cnn(C)c3C(F)(F)F)c2CCN1C(=O)c1ccnc2c1cnn2C` [Example 32, (S)-(2,7-Dimethyl-3-(1-methyl-5-(trifluoromethyl)-1H-pyrazol-4-yl)-2,4,5,7-tetrahydro-6H-pyrazolo[3,4-c]pyridin-6-yl)(1-methyl-1H-pyrazolo[3,4-b]pyridin-4-yl)methanone], which IC50 is on record?
The IC50 was 4560 nM.

`Cc1ccc2cc(C(=O)N3CCc4c(nn(C)c4-c4cnn(C)c4C(F)(F)F)[C@@H]3C)cc(C)c2n1` [Example 33, (S)-(2,7-Dimethyl-3-(1-methyl-5-(trifluoromethyl)-1H-pyrazol-4-yl)-2,4,5,7-tetrahydro-6H-pyrazolo[3,4-c]pyridin-6-yl)(2,8-dimethylquinolin-6-yl)methanone] was tested. Which IC50 did it give?
The IC50 was 6470 nM.

`Cc1cc(C(=O)N2CCc3c(nn(C)c3-c3cnn(C)c3C(F)(F)F)[C@@H]2C)c2cc(F)ccc2n1` [Example 34, (S)-(2,7-Dimethyl-3-(1-methyl-5-(trifluoromethyl)-1H-pyrazol-4-yl)-2,4,5,7-tetrahydro-6H-pyrazolo[3,4-c]pyridin-6-yl)(6-fluoro-2-methylquinolin-4-yl)methanone] was tested. Which IC50 did it give?
Its IC50 is 2190 nM.

`COc1cccc(C(=O)N2CCc3c(nn(C)c3-c3cc(C(F)(F)F)nn3C)[C@@H]2C)c1Cl` [Example 35, (S)-(2-Chloro-3-methoxyphenyl)(2,7-dimethyl-3-(1-methyl-3-(trifluoromethyl)-1H-pyrazol-5-yl)-2,4,5,7-tetrahydro-6H-pyrazolo[3,4-c]pyridin-6-yl)methanone] was tested. Which IC50 did it give?
Its IC50 is 25 nM.

How did the IC50 turn out when `COc1cccc(C(=O)N2CCc3c(nn(C)c3-c3cc(C(F)(F)F)nn3C)[C@@H]2C)c1C` [Example 36, (S)-(2,7-Dimethyl-3-(1-methyl-3-(trifluoromethyl)-1H-pyrazol-5-yl)-2,4,5,7-tetrahydro-6H-pyrazolo[3,4-c]pyridin-6-yl)(3-methoxy-2-methylphenyl)methanone] was run?
The IC50 was 23 nM.

`C[C@H]1c2nn(C)c(-c3cc(C(F)(F)F)nn3C)c2CCN1C(=O)c1cc(F)ccc1-n1cccn1` [Example 37, (S)-(2,7-Dimethyl-3-(1-methyl-3-(trifluoromethyl)-1H-pyrazol-5-yl)-2,4,5,7-tetrahydro-6H-pyrazolo[3,4-c]pyridin-6-yl)(5-fluoro-2-(1H-pyrazol-1-yl)phenyl)methanone] was tested. Which IC50 did it give?
The IC50 was 380 nM.

How did the IC50 turn out when `COc1cccc(C(=O)N2CCc3c(nn(C)c3-c3cc(C(F)(F)F)nn3C)[C@@H]2C)c1` [Example 38, (S)-(2,7-Dimethyl-3-(1-methyl-3-(trifluoromethyl)-1H-pyrazol-5-yl)-2,4,5,7-tetrahydro-6H-pyrazolo[3,4-c]pyridin-6-yl)(3-methoxyphenyl)methanone] was run?
The IC50 was 73 nM.

How did the IC50 turn out when `COc1cc(Cl)cc(C(=O)N2CCc3c(nn(C)c3-c3cc(C(F)(F)F)nn3C)[C@@H]2C)c1` [Example 39, (S)-(3-Chloro-5-methoxyphenyl)(2,7-dimethyl-3-(1-methyl-3-(trifluoromethyl)-1H-pyrazol-5-yl)-2,4,5,7-tetrahydro-6H-pyrazolo[3,4-c]pyridin-6-yl)methanone] was run?
Its IC50 is 38 nM.

For `COc1ccc(C(=O)N2CCc3c(nn(C)c3-c3cc(C(F)(F)F)nn3C)[C@@H]2C)c(C)c1` [Example 40, (S)-(2,7-Dimethyl-3-(1-methyl-3-(trifluoromethyl)-1H-pyrazol-5-yl)-2,4,5,7-tetrahydro-6H-pyrazolo[3,4-c]pyridin-6-yl)(4-methoxy-2-methylphenyl)methanone], which IC50 is on record?
The IC50 was 230 nM.

With `COc1cc(C)ccc1C(=O)N1CCc2c(nn(C)c2-c2cc(C(F)(F)F)nn2C)[C@@H]1C` [Example 41, (S)-(2,7-Dimethyl-3-(1-methyl-3-(trifluoromethyl)-1H-pyrazol-5-yl)-2,4,5,7-tetrahydro-6H-pyrazolo[3,4-c]pyridin-6-yl)(2-methoxy-4-methylphenyl)methanone] as the compound, how does the IC50 read?
The IC50 was 62 nM.

`COc1ccc(C(=O)N2CCc3c(nn(C)c3-c3cc(C(F)(F)F)nn3C)[C@@H]2C)c(Cl)c1` [Example 42, (S)-(2-Chloro-4-methoxyphenyl)(2,7-dimethyl-3-(1-methyl-3-(trifluoromethyl)-1H-pyrazol-5-yl)-2,4,5,7-tetrahydro-6H-pyrazolo[3,4-c]pyridin-6-yl)methanone] was tested. Which IC50 did it give?
The IC50 was 100 nM.

Which IC50 does the source give for `Cc1ccc(C(=O)N2CCc3c(nn(C)c3-c3cc(C(F)(F)F)nn3C)[C@@H]2C)cc1C` [Example 43, (S)-(2,7-Dimethyl-3-(1-methyl-3-(trifluoromethyl)-1H-pyrazol-5-yl)-2,4,5,7-tetrahydro-6H-pyrazolo[3,4-c]pyridin-6-yl)(3,4-dimethylphenyl)methanone] here?
The IC50 was 33 nM.
